From US20220169628A1 (University of Florida Research Foundation, Incorporated, priority 2019, published 2022) come the findings set out here.

SMILES strings stand for the structures.

The subject of assay [1] is MOLT-4 cells. The assay can be described thus: Cell viability assay, MTS, 48 h, MOLT-4. Type of assay: cell-based. The note with it: Homo sapiens, MOLT-4, 48 h, 48 hours, read-out: IC50 (48 hours) MOLT-4. As to the method:
(§1) Acute lymphoblastic leukemia cells (MOLT-4 and RS4; 11) or small cell lung cancer (NCI-H146 or simply H146) were incubated with increasing concentrations of Bcl-xL degraders for 48 h. Cell viability was measured by tetrazolium-based MTS assay.

Assay [2] has as its system RS4;11 cells. The experiment in a line: Cell viability assay, MTS, 48 h, RS4;11. The class given is cell-based. To be noted: Homo sapiens, RS4-11, 48 h, 48 hours, read-out: IC50 (48 hours) RS4;11. The procedure:
as §1

In general, IC50 refers to the concentration that inhibits the measured activity by half. With `Cc1ncsc1-c1ccc([C@H](C)NC(=O)[C@@H]2C[C@@H](O)CN2C(=O)[C@@H](NC(=O)CCCN2CCN(CC3(C)CCC(c4ccc(Cl)cc4)=C(CN4CCN(c5ccc(C(=O)NS(=O)(=O)c6ccc(N[C@H](CCN7CCOCC7)CSc7ccccc7)c(S(=O)(=O)C(F)(F)F)c6)cc5)CC4)C3)CC2)C(C)(C)C)cc1` (stereo partly drawn) [compound 68, (2S,4R)-1-((2S)-2-(4-(4-((4′-chloro-4-methyl-6-((4-(4-(((4-(((R)-4-morpholino-1-(phenylthio)butan-2-yl)amino)-3-((trifluoromethyl)sulfonyl)phenyl)sulfonyl)carbamoyl)phenyl)piperazin-1-yl)methyl)-2,3,4,5-tetrahydro-[1,1′-biphenyl]-4-yl)methyl)piperazin-1-yl)butanamido)-3,3-dimethylbutanoyl)-4-hydroxy-N—((S)-1-(4-(4-methylthiazol-5-yl)phenyl)ethyl)pyrrolidine-2-carboxamide], the values for the 50% inhibitory concentration (IC50) in assay [1] and in assay [2] were greater than 500 nM and 150 to 500 nM, respectively.

Turning to `Cc1ncsc1-c1ccc([C@H](C)NC(=O)[C@@H]2C[C@@H](O)CN2C(=O)[C@@H](NC(=O)COCCOCCOCCOC(=O)N2CCC(c3ccc(Cl)cc3)=C(CN3CCN(c4ccc(C(=O)NS(=O)(=O)c5ccc(N[C@H](CCN6CCOCC6)CSc6ccccc6)c(S(=O)(=O)C(F)(F)F)c5)cc4)CC3)C2)C(C)(C)C)cc1` [compound 86, (S)-13-((2S,4R)-4-hydroxy-2-(((S)-1-(4-(4-methylthiazol-5-yl)phenyl)ethyl)carbamoyl)pyrrolidine-1-carbonyl)-14,14-dimethyl-11-oxo-3,6,9-trioxa-12-azapentadecyl 4-(4-chlorophenyl)-5-((4-(4-(((4-(((R)-4-morpholino-1-(phenylthio)butan-2-yl)amino)-3-((trifluoromethyl)sulfonyl)phenyl)sulfonyl)carbamoyl)phenyl)piperazin-1-yl)methyl)-3,6-dihydropyridine-1(2H)-carboxylate], the half-inhibitory concentration (IC50) in assay [1] and in assay [2] was greater than 500 nM each time.

In the case of `Cc1ncsc1-c1ccc([C@H](C)NC(=O)[C@@H]2C[C@@H](O)CN2C(=O)[C@@H](NC(=O)CCCC(=O)N2CCN(C(=O)C3(C)CCC(c4ccc(Cl)cc4)=C(CN4CCN(c5ccc(C(=O)NS(=O)(=O)c6ccc(N[C@H](CCN7CCOCC7)CSc7ccccc7)c(S(=O)(=O)C(F)(F)F)c6)cc5)CC4)C3)CC2)C(C)(C)C)cc1` (stereo partly drawn) [compound 63, (2S,4R)-1-((2S)-2-(5-(4-(4′-chloro-4-methyl-6-((4-(4-(((4-(((R)-4-morpholino-1-(phenylthio)butan-2-yl)amino)-3-((trifluoromethyl)sulfonyl)phenyl)sulfonyl)carbamoyl)phenyl)piperazin-1-yl)methyl)-2,3,4,5-tetrahydro-[1,1′-biphenyl]-4-carbonyl)piperazin-1-yl)-5-oxopentanamido)-3,3-dimethylbutanoyl)-4-hydroxy-N—((S)-1-(4-(4-methylthiazol-5-yl)phenyl)ethyl)pyrrolidine-2-carboxamide], the IC50 in assay [1] and in assay [2] was greater than 500 nM throughout.

For `Cc1ncsc1-c1ccc([C@H](C)NC(=O)[C@@H]2C[C@@H](O)CN2C(=O)[C@@H](NC(=O)CCCCCC(=O)N2CCC(c3ccc(Cl)cc3)=C(CN3CCN(c4ccc(C(=O)NS(=O)(=O)c5ccc(N[C@H](CCN6CCOCC6)CSc6ccccc6)c(S(=O)(=O)C(F)(F)F)c5)cc4)CC3)C2)C(C)(C)C)cc1` [compound 80, (2S,4R)-1-((S)-2-(7-(4-(4-chlorophenyl)-5-((4-(4-(((4-(((R)-4-morpholino-1-(phenylthio)butan-2-yl)amino)-3-((trifluoromethyl)sulfonyl)phenyl)sulfonyl)carbamoyl)phenyl)piperazin-1-yl)methyl)-3,6-dihydropyridin-1(2H)-yl)-7-oxoheptanamido)-3,3-dimethylbutanoyl)-4-hydroxy-N—((S)-1-(4-(4-methylthiazol-5-yl)phenyl)ethyl)pyrrolidine-2-carboxamide], the concentration for half-maximal inhibition (IC50) in assay [1] and in assay [2] was greater than 500 nM each time.

Turning to `Cc1ncsc1-c1ccc([C@H](C)NC(=O)[C@@H]2C[C@@H](O)CN2C(=O)[C@@H](NC(=O)CCCCCCCN2CCN(CC3(C)CCC(c4ccc(Cl)cc4)=C(CN4CCN(c5ccc(C(=O)NS(=O)(=O)c6ccc(N[C@H](CCN7CCOCC7)CSc7ccccc7)c(S(=O)(=O)C(F)(F)F)c6)cc5)CC4)C3)CC2)C(C)(C)C)cc1` (stereo partly shown) [Compound 53], the IC50 in assay [1] and in assay [2] was 50 to 150 nM in each case.

Regarding `Cc1ncsc1-c1ccc([C@H](C)NC(=O)[C@@H]2C[C@@H](O)CN2C(=O)[C@@H](NC(=O)CCCCCC(=O)N2CC3(CCN(CC4(C)CCC(c5ccc(Cl)cc5)=C(CN5CCN(c6ccc(C(=O)NS(=O)(=O)c7ccc(N[C@H](CCN8CCOCC8)CSc8ccccc8)c(S(=O)(=O)C(F)(F)F)c7)cc6)CC5)C4)CC3)C2)C(C)(C)C)cc1` (stereo partly drawn) [degrader #31, (2S,4R)-1-((2S)-2-(7-(7-((4′-chloro-4-methyl-6-((4-(4-(((4-(((R)-4-morpholino-1-(phenylthio)butan-2-yl)amino)-3-((trifluoromethyl)sulfonyl)phenyl)sulfonyl)carbamoyl)phenyl)piperazin-1-yl)methyl)-2,3,4,5-tetrahydro-[1,1′-biphenyl]-4-yl)methyl)-2,7-diazaspiro[3.5]nonan-2-yl)-7-oxoheptanamido)-3,3-dimethylbutanoyl)-4-hydroxy-N—((S)-1-(4-(4-methylthiazol-5-yl)phenyl)ethyl)pyrrolidine-2-carboxamide], the IC50 in assay [1] was 50 to 150 nM; in assay [2] it was less than 50 nM.

`CC1(CNC(=O)COCCNc2cccc3c2C(=O)N(C2CCC(=O)NC2=O)C3=O)CCC(c2ccc(Cl)cc2)=C(CN2CCN(c3ccc(C(=O)NS(=O)(=O)c4ccc(N[C@H](CCN5CCOCC5)CSc5ccccc5)c(S(=O)(=O)C(F)(F)F)c4)cc3)CC2)C1` (stereo partly drawn) [compound 76, 4-(4-((4′-chloro-4-((2-(2-((2-(2,6-dioxopiperidin-3-yl)-1,3-dioxoisoindolin-4-yl)amino)ethoxy)acetamido)methyl)-4-methyl-3,4,5,6-tetrahydro-[1,1′-biphenyl]-2-yl)methyl)piperazin-1-yl)-N-((4-(((R)-4-morpholino-1-(phenylthio)butan-2-yl)amino)-3-((trifluoromethyl)sulfonyl)phenyl)sulfonyl)benzamide]: the IC50 in assay [1] and in assay [2] was 50 to 150 nM throughout.

In the case of `CC1(CNC(=O)CCCCCCNc2cccc3c2C(=O)N(C2CCC(=O)NC2=O)C3=O)CCC(c2ccc(Cl)cc2)=C(CN2CCN(c3ccc(C(=O)NS(=O)(=O)c4ccc(N[C@H](CCN5CCOCC5)CSc5ccccc5)c(S(=O)(=O)C(F)(F)F)c4)cc3)CC2)C1` (stereo partly drawn) [compound 72, 4-(4-((4′-chloro-4-((7-((2-(2,6-dioxopiperidin-3-yl)-1,3-dioxoisoindolin-4-yl)amino)heptanamido)methyl)-4-methyl-3,4,5,6-tetrahydro-[1,1′-biphenyl]-2-yl)methyl)piperazin-1-yl)-N-((4-(((R)-4-morpholino-1-(phenylthio)butan-2-yl)amino)-3-((trifluoromethyl)sulfonyl)phenyl)sulfonyl)benzamide], the IC50 in assay [1] and in assay [2] was less than 50 nM throughout.
